# According to patent publication US20100144853A1, “NOVEL COMBINED ADMINISTRATION” (priority 2008, published 2010):
# Experiments:
# Type in all cases: in vitro ADME
# [1] = tested on: Lipase from Hog Pancreas; experiment: Stability of COMPOUND A with Lipase, with and without COMPOUND B (Example 1); details: 0.55 mg/mL (11 U/mL) Lipase
# Experimental: (a) FeSSIF (Fed State Simulated Intestinal Fluid) and phosphate buffered saline solution:
# (b) Stock A=drug solution (0.5 mg/mL):
# 5 mg of thioisobutyric acid S-(2-{[1-(2-ethyl-butyl)-cyclohexanecarbonyl]-amino}-phenyl)ester (COMPOUND A) were dissolved in 50 μL ethanol and 950 μL mixed micelles Soybean lecithin/Sodium glycocholate (158/97 mg/mL) in water were added. One part of the mixture was diluted with 9 parts of phosphate buffered saline solution at pH 6.5.
# (c) Stock B=esterase inhibitor solution (1.0 mg/mL)
# 5 mg 1-(3-hexyl-4-oxo-oxetan-2-yl)tridecan-2-yl 2-formyl-amino-4-methyl-pentanoate (COMPOUND B) were dissolved in 250 μL ethanol. 4.75 mL mixed micelles soybean lecithin/sodium glycocholate (30/80.6 mg/mL) were added to give a solution of 1 mg/mL COMPOUND B.
# (d) Stock C=Lipase in phosphate buffered saline solution (PBS) pH 6.5 (example given at 24 mg/mL, with a final enzyme activity of about 450 U/mL)
# (§1) 240 mg Lipase (Lipase from Hog Pancreas, 20.6 U/mg Lipase, CAS No. 9001-62-1, Fluka, Art. No. 62300) were weighed into a vial and dissolved by stirring in 10 mL phosphate buffered saline solution pH 6.5. Any undissolved material was removed by centrifugation during 5 min at 5000 rpm. The supernatant was used for the experiments and diluted with PBS to obtain the Lipase at the final concentration of 0.55 mg/mL.
# […] To this, 200 μL of drug solution (stock A) were injected at time zero. The mixture was incubated at 37° C., while mixing gently with a rotating shaker at about 2 rpm. At regular intervals 200 μL samples were taken and diluted immediately with 600 μL of isopropanol. The combined solution/suspension was centrifuged during 5 min at 3000 rpm and the concentration of COMPOUND A as well as its potential degradation products were determined in the supernatant by HPLC analysis.
# To obtain the value at time zero, 600 μL of isopropanol were added to 180 μL of a 0.55 mg/mL Lipase in a phosphate buffered saline solution to inhibit the enzymes followed by the addition of 20 μL of drug solution (stock A).
# [2] = tested on: Lipase from Hog Pancreas; experiment: Stability of COMPOUND A with Lipase, Procedure A (premix of Lipase and COMPOUND B, then COMPOUND A); details: 10 min, 0.55 mg/mL (11 U/mL) Lipase
# Experimental: as §1
# Procedure A (Premix of Lipase and COMPOUND B, Followed by Addition of Compound A):
# 1600 μL of Lipase in phosphate buffered saline solution (from stock C) to obtain a final enzyme concentration of 0.55 mg/mL) were mixed with 200 μL of COMPOUND B (stock B) and pre-incubated during 5 min at 37° C. At time zero 200 μL of drug solution (stock A) were added. The mixture was incubated at 37° C. After 10 min, the reaction was stopped by dilution of one part of the mixture with 3 parts of isopropanol.
# [3] = Stability of COMPOUND A in human intestinal fluids, Procedure E (suspension, excess separated by centrifugation), fasted; details: HIF-fasted
# Experimental: Fasted Intestinal Fluids: the fluids from 4 different subjects were collected with a naso-jejunal tube after fasting overnight and pooled.
# (§2) Procedure E (COMPOUND A and COMPOUND B in Suspension, Excess Compound Separated by Centrifugation):
# (§3) Stock J=COMPOUND B suspension (2 mg/mL)
# (§4) 100 μL of FeSSIF concentrate and 900 μL of pro-FeSSIF pH6.5 were added to 4 mg commercially available Orlistat formulation (Xenical®) containing 2 mg of lipase inhibitor 1-(3-hexyl-4-oxo-oxetan-2-yl)tridecan-2-yl 2-formyl-amino-4-methyl-pentanoate (COMPOUND B) in a vial and the formulation was dispersed by gently stirring during 15 min to obtain a fine homogenous suspension.
# (§5) 500 μL of freshly thawed intestinal fluids (fasted and stimulated state) were added to 1 mg of COMPOUND A in a 1 mL glass vial immediately followed by the addition of either 0, 10 or 20 μL of COMPOUND B suspension (stock J) corresponding to 0, 40 or 80 μg/mL of COMPOUND B. The amount of COMPOUND B was 0, 2% or 4% COMPOUND B relative to COMPOUND A. The mixture was incubated at 37° C. with gentle stirring. Samples of 90 μL were removed as function of time and centrifuged at 13′000 rpm (about 12′000×g) for 5 min. 50 μL of the supernatant was diluted with 150 μL isopropanol, centrifuged at 5′000 rpm for 5 min and the clear supernatant was analyzed by HPLC.
# [4] = Stability of COMPOUND A in human intestinal fluids, Procedure E (suspension, excess separated by centrifugation), stimulated; details: HIF-stimulated
# Experimental: Stimulated Intestinal Fluids: the fluids from 3 different subjects were collected after fasting overnight with a nasojejunal tube and pooled. For the stimulation, twenty minutes before the beginning of the collection, volunteers were provided with chewing-gums and were asked to chew over a 15 minutes period, maintaining the taste by replacing the sticks of gum approximately every 2 minutes.
# as §2, §3, §4, §5
# [5] = with 40 μg/mL of COMPOUND B, 15 min
# [6] = with 40 μg/mL of COMPOUND B, 30 min
# [7] = with 40 μg/mL of COMPOUND B, 1 h
# [8] = with 40 μg/mL of COMPOUND B, 2 h
# [9] = with 40 μg/mL of COMPOUND B, 4 h
# [10] = with 80 μg/mL of COMPOUND B, 15 min
# [11] = with 80 μg/mL of COMPOUND B, 30 min
# [12] = with 80 μg/mL of COMPOUND B, 1 h
# [13] = with 80 μg/mL of COMPOUND B, 2 h
# [14] = with 80 μg/mL of COMPOUND B, 4 h
compound,measurement,setting,value
"CCC(CC)CC1(C(=O)Nc2ccccc2SC(=O)C(C)C)CCCCC1 [COMPOUND A, thioisobutyric acid S-(2-{[1-(2-ethyl-butyl)-cyclohexanecarbonyl]-amino}-phenyl)ester]",Concentration of COMPOUND A,"[1]; +100 μg/mL COMPOUND B, 5 min",48.2 µg/mL
same,Concentration of COMPOUND A,"[1]; +100 μg/mL COMPOUND B, 10 min",48.2 µg/mL
same,Concentration of COMPOUND A,"[1]; +100 μg/mL COMPOUND B, 15 min",48.2 µg/mL
same,Concentration of COMPOUND A,"[1]; +100 μg/mL COMPOUND B, 20 min",48.0 µg/mL
same,Concentration of COMPOUND A,"[1]; +100 μg/mL COMPOUND B, 30 min",48.3 µg/mL
same,Concentration of COMPOUND A,"[1]; +100 μg/mL COMPOUND B, 60 min",40.1 µg/mL
same,Concentration of COMPOUND A,"[1]; time 0 min (column +100 μg/mL COMPOUND B), theoretical 50 μg/mL",46.9 µg/mL
same,Concentration of COMPOUND A,"[1]; w/o COMPOUND B, 5 min",27.2 µg/mL
same,Concentration of COMPOUND A,"[1]; w/o COMPOUND B, 10 min",14.7 µg/mL
same,Concentration of COMPOUND A,"[1]; w/o COMPOUND B, 15 min",7.3 µg/mL
same,Concentration of COMPOUND A,"[1]; w/o COMPOUND B, 20 min",4.1 µg/mL
same,Concentration of COMPOUND A,"[1]; w/o COMPOUND B, 30 min",<0.1 µg/mL
same,Concentration of COMPOUND A,"[1]; w/o COMPOUND B, 60 min",<0.1 µg/mL
same,Concentration of COMPOUND A,[2]; COMPOUND B 0 μg/mL,14.7 µg/mL
same,Concentration of COMPOUND A,[2]; COMPOUND B 50 μg/mL,46.4 µg/mL
same,Concentration of COMPOUND A,[2]; COMPOUND B 100 μg/mL,48.2 µg/mL
same,Concentration of COMPOUND A,[3]; [5],1.12 µg/mL
same,Concentration of COMPOUND A,[3]; [6],11.75 µg/mL
same,Concentration of COMPOUND A,[3]; [7],111.05 µg/mL
same,Concentration of COMPOUND A,[3]; [8],217.35 µg/mL
same,Concentration of COMPOUND A,[3]; [9],281.66 µg/mL
same,Concentration of COMPOUND A,[3]; [10],5.62 µg/mL
same,Concentration of COMPOUND A,[3]; [11],16.36 µg/mL
same,Concentration of COMPOUND A,[3]; [12],89.60 µg/mL
same,Concentration of COMPOUND A,[3]; [13],230.34 µg/mL
same,Concentration of COMPOUND A,[3]; [14],336.00 µg/mL
same,Concentration of COMPOUND A,"[3]; without COMPOUND B, 15 min",1.62 µg/mL
same,Concentration of COMPOUND A,"[3]; without COMPOUND B, 30 min",1.86 µg/mL
same,Concentration of COMPOUND A,"[3]; without COMPOUND B, 1 h",0.49 µg/mL
same,Concentration of COMPOUND A,"[3]; without COMPOUND B, 2 h",0.49 µg/mL
same,Concentration of COMPOUND A,"[3]; without COMPOUND B, 4 h",0.49 µg/mL
same,Concentration of COMPOUND A,[4]; [5],0.74 µg/mL
same,Concentration of COMPOUND A,[4]; [6],0.55 µg/mL
same,Concentration of COMPOUND A,[4]; [7],10.53 µg/mL
same,Concentration of COMPOUND A,[4]; [8],32.71 µg/mL
same,Concentration of COMPOUND A,[4]; [9],221.31 µg/mL
same,Concentration of COMPOUND A,[4]; [10],1.00 µg/mL
same,Concentration of COMPOUND A,[4]; [11],11.80 µg/mL
same,Concentration of COMPOUND A,[4]; [12],64.63 µg/mL
same,Concentration of COMPOUND A,[4]; [13],131.64 µg/mL
same,Concentration of COMPOUND A,[4]; [14],171.25 µg/mL
same,Concentration of COMPOUND A,"[4]; without COMPOUND B, 15 min",3.09 µg/mL
same,Concentration of COMPOUND A,"[4]; without COMPOUND B, 30 min",0.52 µg/mL
same,Concentration of COMPOUND A,"[4]; without COMPOUND B, 1 h",0.62 µg/mL
same,Concentration of COMPOUND A,"[4]; without COMPOUND B, 2 h",0.82 µg/mL
same,Concentration of COMPOUND A,"[4]; without COMPOUND B, 4 h",1.31 µg/mL
